According to PubChem BioAssay AID2060511 (Molecular Pharmacology Branch, DTP, NCI, 2025):
pIC50: −log10 of the molar value. Several values for one entry are separate records, joined by “and”; a condition that tells them apart may be missing. Equal entries are not always repeated.

Tested on: 422866-222-R5-J1-PDC spheroids with HUVEC/MSC, viability
Assay: Anticancer human tumor 422866-222-R5-J1-PDC patient-derived pancreatic adenocarcinoma cell line growth inhibition [GQUAD]
Details: for viability, T/C: stronger effect = lower value
Excerpt: DNA G-quadruplex Stabilizer Agents in Combinations in Complex Spheroids
A high-throughput screen of multi-cell type tumor spheroids was designed to identify active combinations of DNA G-quadruplex stabilizer agents and targeted small molecules. Complex spheroids include a stromal component modeled by human endothelial cells (HUVEC) and fibroblasts modeled by human mesenchymal stem cells (MSCs). The concentration ranges selected for each drug and investigational agent were based upon clinically achievable concentrations if the clinical Cmax of the agent was known.
Compounds. The drugs and investigational agents: pidnarulex (CX-5461; NSC782164), APTO-253 (NSC789042), BRACO-19 (NSC847499), peposertib (NSC802822), ceralasertib (NSC780249), elimusertib (NSC800525), camonsertib (NSC841442), AZD-1390 (NSC803789), olaparib (NSC753686), talazoparib (NSC767125), ART-558 (NSC835418), sotorasib (NSC818433), MRTX-1133 (NSC836407), SN-38 (NSC673596), topotecan (NSC609699), etoposide (NSC141540), doxorubicin (NSC123127), gemcitabine (NSC613327), 5-fluorouracil (NSC19893), paclitaxel (NSC125973), vemurafenib (NSC761431), panobinostat (NSC761190), R-306465 (JNJ-16241199; NSC773264), adavosertib (NSC754352), TP-3654 (NSC805149), carboplatin (NSC241240), KSQ-4279 (NSC840948), and staurosporine (NSC755774) were obtained from the National Cancer Institute (NCI) Developmental Therapeutics Program Chemical Repository (34). The FDA-approved anticancer drug set is available from the NCI Developmental Therapeutics Program. […] The stock solutions were prepared in dimethyl sulfoxide (DMSO, Sigma-Aldrich, St. Louis, MO, cat. D2650) at 800-fold the tested concentration and stored at -70 degrees C prior to their use. All drugs and investigational agents were tested over a range starting from a high concentration at or near the clinical Cmax and decreasing in half-log increments. If the clinical Cmax for an agent had not been determined, the highest concentration tested was 10 microM.
2.3 Cell Culture. All cells were maintained in an incubator at 37 degrees C and 5% CO2 with 95% humidity. The PDC lines were cultured according to standard operating procedures established by the NCI PDMR. All PDCs were thawed and cultured in Matrigel-coated flasks prepared with a working solution of 1X Ham's F-12 nutrient mix, without supplementation (Invitrogen, cat. 11765054), 100 U/mL penicillin-streptomycin (Invitrogen, cat. 15140122), and 2.5% Matrigel (Corning Inc., cat. 354248) for the first three passages. The 857933-349-R-J2-PDC line was cultured in 6C/Colon 1B media, which includes advanced DMEM/F-12 (Thermo Fisher Scientific, cat. 12634028), 10 mM HEPES (Thermo Fisher Scientific, cat. 15630080), 1X GlutaMAX supplement (Thermo Fisher Scientific, cat. 35050061), 0.1 mg/mL primocin (InvivoGen, cat. ant-pm-2), 10% defined fetal bovine serum, heat inactivated (HyClone Laboratories Inc., cat. SH30070.03HI), 50% L-WRN conditioned media (ATCC, cat. CRL-3276), 1.25 mM N-Acetyl-L-cysteine (Sigma-Aldrich, cat. A9165), 10 mM nicotinamide (Sigma-Aldrich, cat. N0636), 1X B-27 supplement (Thermo Fisher Scientific, cat. 17504044), 1X N-2 supplement (Thermo Fisher Scientific, cat. 17502048), 10 microM Y-27632 dihydrochloride (Tocris Bioscience, cat. 1254), and 50 ng/mL human EGF recombinant protein (Thermo Fisher Scientific, cat. PHG0311). The 485176-168-R4-J1-PDC line was cultured in Panc media, which includes all 6C/Colon 1B media components plus 100 ng/mL human FGF-10 (Thermo Fisher Scientific, cat. 100-26), 500 nM SB-431542 (Selleckchem, cat. S1067), and gastrin (Tocris, cat. 3006).
[…]
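Also: spheroids exposed to compounds for seven days before reading.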
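For viability, T/C in this document: percent viability relative to DMSO vehicle control taken as 100%.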

Row | Structure (SMILES) | viability, T/C (compound 0.0316 µM) | viability, T/C (compound 0.1 µM) | viability, T/C (compound 0.316 µM) | viability, T/C (compound 1 µM) | viability, T/C (compound 3.16 µM) | viability, T/C (compound 10 µM) | pIC50 (curve of compound) | viability, T/C (compound 0.000999 µM) | viability, T/C (compound 0.00316 µM) | viability, T/C (compound 0.00999 µM) | viability, T/C (compound 0.0999 µM) | pIC50 (compound alone, run of 04/22/2024)
1 | C=CC(=O)N1CCN(c2nc(=O)n(-c3c(C)ccnc3C(C)C)c3nc(-c4c(O)cccc4F)c(F)cc23)C(C)C1 (stereo unspecified) | 36.5% and 39.1% and 37% | 32.9% and 29.9% and 28.5% | 26.3% and 28.8% and 27.6% | 27.3% and 26.2% and 23% | 28.3% and 28.8% and 27.6% | 29.3% and 30.3% and 27.3% | > 7.50 | – | – | – | – | –
2 | CC(C)n1c(=O)n(C)c2cnc3cc(F)c(-c4ccc(OCCCN5CCCCC5)nc4)cc3c21 | 99.2% and 87.6% and 100% | 80.5% and 101% and 90.1% | 110% and 104% and 113% | 97.4% and 95.7% and 97.5% | 85.5% and 89.8% and 90.1% | 58.6% and 62.1% and 64.2% | < 5.00 | – | – | – | – | –
3 | CC1COCCN1c1cc(-c2ccnn2C)c2ccnc(-c3ccn[nH]3)c2n1 (stereo unspecified) | 80.3% and 71.6% and 81.9% | 63.1% and 61.5% and 48.7% | 47.8% and 50% and 45.2% | 45% and 40.2% and 45.6% | 63.9% and 81.7% and 45% | 81.2% and 80.8% and 88.8% | – | – | – | – | – | –
4 | CC1COCCN1c1cc(C2(O)CC3CCC(C2)O3)c2cnn(-c3ccn[nH]3)c2n1 (stereo unspecified) | 79.2% and 81.7% and 79.9% | 44.1% and 40% and 47.8% | 42.2% and 37.5% and 56.3% | 57.8% and 66.2% and 79.9% | 89.3% and 91.2% and 80.4% | 90.9% and 96% and 90.3% | < 5.00 | – | – | – | – | –
5 | CC1COCCN1c1cc(C2(S(C)(=N)=O)CC2)nc(-c2ccnc3[nH]ccc23)n1 (stereo unspecified) | 81.8% and 101% and 93.1% | 90.2% and 107% and 98.3% | 105% and 97.1% and 114% | 70.9% and 82.1% and 91.5% | 43% and 44.8% and 50.8% | 38% and 39.5% and 36.4% | 5.66 and 5.56 and 5.49 | – | – | – | – | –
6 | CC[C@@]1(O)C(=O)OCc2c1cc1n(c2=O)Cc2cc3c(CN(C)C)c(O)ccc3nc2-1 | 75.4% and 74.9% and 70.9% | – | 42.4% and 50.6% and 38.1% | – | – | – | 7.09 and 6.59 and 7.17 | 83.5% and 106% and 100% | 90.9% and 90.2% and 96.4% | 95.7% and 88.8% and 103% | 45.5% and 52.7% and 40.6% | –
7 | CCc1c2c(nc3ccc(O)cc13)-c1cc3c(c(=O)n1C2)COC(=O)[C@]3(O)CC | 36.8% and 46.3% and 25.2% | – | 34% and 43.8% and 29.1% | – | – | – | > 9.00 and 8.93 and 8.79 | 53.2% and 55.8% and 56.2% | 38.6% and 47.6% and 39.6% | 42.5% and 37.8% and 43.5% | 33.3% and 47.4% and 35.1% | –
8 | CN(C)c1ccc(Nc2c3ccc(NC(=O)CCN4CCCC4)cc3nc3cc(NC(=O)CCN4CCCC4)ccc23)cc1 | 96.4% [middle of 12 runs] | 96.8% [middle of 12 runs] | – | 90.4% [middle of 12 runs] | 96% [middle of 12 runs] | – | – | – | – | – | – | < 5.00
9 | COc1cc(C2c3cc4c(cc3C(OC3OC5COC(C)OC5C(O)C3O)C3COC(=O)C23)OCO4)cc(OC)c1O (stereo unspecified) | 102% and 106% and 103% | 84% and 84.1% and 90.4% | 72.1% and 81.7% and 80.7% | 62.7% and 51.7% and 55.9% | 40.4% and 40.3% and 45% | 38% and 35.9% and 40.2% | 5.67 and 5.81 and 5.70 | – | – | – | – | –
10 | COc1ccc([C@@H](O)c2cc(-c3ncnc4cc(N5CCOCC5)ccc34)c(F)cc2Cl)nn1 | 82.4% and 103% and 110% | 76.2% and 78.4% and 99% | 81.6% and 86% and 90.4% | 63.3% and 76.9% and 70.8% | 51.5% and 44.1% and 60.7% | 36.9% and 35.1% and 47.2% | 5.50 and 5.58 and 5.10 | – | – | – | – | –
11 | COc1cccc2c1C(=O)c1c(O)c3c(c(O)c1C2=O)CC(O)(C(=O)CO)CC3OC1CC(N)C(O)C(C)O1 (stereo unspecified) | 94.3% and 90.9% and 92.6% | 58.5% and 62.5% and 78.8% | 61.9% and 57.1% and 68.5% | 41.8% and 51.2% and 47.5% | 35.5% and 35.9% and 29.4% | 32% and 40.5% and 31.3% | 6.38 and 6.23 and 6.09 | – | – | – | – | –
12 | Cc1[nH]c2ccccc2c1CCNCc1ccc(/C=C/C(=O)NO)cc1 | 95.7% and 94.4% and 76.5% | – | 86.2% and 55.7% and 46.1% | – | – | – | < 6.50 and 6.60 | 94.9% and 82.3% and 89.6% | 90.6% and 106% and 89.9% | 110% and 121% and 100% | 88.5% and 62.9% and 66.2% | –
13 | Cc1cccc(N(C)C(=O)C2C(O)CCN2c2nc(C)cc(C(F)(F)F)c2C#N)c1 (stereo unspecified) | 96.3% and 97.3% and 82.4% | 103% and 95.9% and 89.9% | 103% and 102% and 96.2% | 101% and 96.9% and 109% | 99.9% and 77.2% and 105% | 108% and 97.5% and 98% | < 5.00 | – | – | – | – | –
14 | Cn1ncnc1[C@H]1c2n[nH]c(=O)c3cc(F)cc(c23)N[C@@H]1c1ccc(F)cc1 | 91.8% and 90.4% and 88.1% | – | 78.1% and 72.3% and 73.5% | – | – | – | < 6.50 | 91.3% and 88.8% and 87.1% | 107% and 96.2% and 77.8% | 96.3% and 99.6% and 107% | 80.6% and 91.5% and 75.3% | –
15 | Nc1ccn(C2OC(CO)C(O)C2(F)F)c(=O)n1 (stereo unspecified) | 87.9% and 88.9% and 93.4% | 66% and 76.8% and 74.1% | 61.7% and 70.3% and 61.1% | 51.8% and 55.9% and 40% | 41.4% and 48.6% and 40% | 40.8% and 39.7% and 38% | 6.00 and 5.61 and 6.22 | – | – | – | – | –
16 | O=C(c1cc(Cc2n[nH]c(=O)c3ccccc23)ccc1F)N1CCN(C(=O)C2CC2)CC1 | 95.7% and 90.6% and 98.8% | 89.7% and 88.2% and 93.5% | 95.3% and 90.9% and 94% | 81.4% and 92.8% and 99.6% | 74% and 86.8% and 84% | 79.3% and 66.8% and 59% | < 5.00 | – | – | – | – | –
17 | O=c1[nH]cc(F)c(=O)[nH]1 | 103% and 89.7% and 95.6% | 93.4% and 92.9% and 86.8% | 91% and 104% and 109% | 88% and 89.2% and 87.2% | 78.2% and 73.6% and 76.3% | 71.8% and 68.2% and 62.4% | < 5.00 | – | – | – | – | –
